Laboratory results: ChEMBL document CHEMBL3739309, “Fragment growing exploiting dynamic combinatorial chemistry of inhibitors of the aspartic protease endothiapepsin” (Medchemcomm, 2015)

Target: T1, Endothiapepsin (Cryphonectria parasitica, UniProt P11838)
T1 sequence (P11838 whole entry): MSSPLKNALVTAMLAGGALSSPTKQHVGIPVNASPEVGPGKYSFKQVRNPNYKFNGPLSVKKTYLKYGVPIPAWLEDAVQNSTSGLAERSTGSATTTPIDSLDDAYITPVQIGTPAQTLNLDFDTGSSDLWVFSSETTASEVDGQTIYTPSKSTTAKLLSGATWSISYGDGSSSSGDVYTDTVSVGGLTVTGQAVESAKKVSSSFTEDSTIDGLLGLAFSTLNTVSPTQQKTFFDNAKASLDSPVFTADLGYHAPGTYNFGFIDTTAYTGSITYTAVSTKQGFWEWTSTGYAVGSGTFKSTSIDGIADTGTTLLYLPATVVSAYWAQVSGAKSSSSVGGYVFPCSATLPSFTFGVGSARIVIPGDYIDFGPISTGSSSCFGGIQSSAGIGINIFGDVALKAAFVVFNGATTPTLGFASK
Experiment: Inhibition of Cryphonectria parasitica endothiapepsin using 2-aminobenzoyl-Thr-Ile-Nle-Phe(p-NO2)-Gln-Arg-NH2 as substrate assessed as hydrolysis of substrate into 2-aminobenzoyl-Thr-Ile-Nle and Phe(p-NO2)-GLn-Arg-NH2 by fluorescence-based spectrophotometric analysis

Row | SMILES | IC50 [µM]
1 | N[C@H](C(=O)N/N=C/C1CCCC1)c1ccc(C(F)(F)F)cc1 (mixture of isomers) | 85
2 | N[C@H](C(=O)N/N=C/c1ccccc1)c1ccc(C(F)(F)F)cc1 (mixture of isomers) | 210
